# Patent US20020193564A1, “Oligomeric chaperone proteins” (priority 1999, published 2002)
# T1: heat- and dithiothreitol-denatured mtMDH (Sus scrofa, UniProt P00346)
# T1 construct: Boehringer-Mannheim); purchased Boehringer-Mannheim; host or cells: pig heart
# T1 sequence (P00346 25-338): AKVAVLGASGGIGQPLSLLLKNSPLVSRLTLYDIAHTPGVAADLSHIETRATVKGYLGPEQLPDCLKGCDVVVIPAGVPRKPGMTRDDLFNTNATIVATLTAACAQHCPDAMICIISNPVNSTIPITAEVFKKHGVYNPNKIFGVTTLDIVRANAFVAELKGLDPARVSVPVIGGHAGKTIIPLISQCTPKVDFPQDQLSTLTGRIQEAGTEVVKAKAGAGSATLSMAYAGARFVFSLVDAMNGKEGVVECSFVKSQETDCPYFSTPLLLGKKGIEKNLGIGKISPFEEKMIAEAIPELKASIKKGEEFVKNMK
# B1: GroEL(191-376): monomeric minichaperone, apical domain of GroEL, residues 191 to 376 (protein, UniProt P0A6F5 191-376, looked up, fragment)
# chain: EGMQFDRGYLSPYFINKPETGAVELESPFILLADKKISNIREMLPVLEAVAKAGKPLLIIAEDVEGEALATLVVNTMRGIVKVAAVKAPGFGDRRKAMLQDIATLTGGTVISEEIGMELEKATLEDLGQAKRVVINKDTTTIIDGVGEEAAIQGRVAQIRQQIEEATSDYDREKLQERVAKLAGGV
# modifications: apical domain
# Key:
# [1] = system: mutant Huntingdon exon 1-expressing PC12 and SH-SY5Y cells; settings: overexpression; cited from earlier work
# COS-7 cells = settings: overexpression; cited from earlier work
# [2] = system: COS-7, PC12, and SH-SY5Y cells; settings: treatment with proteasome inhibitor; cited from earlier work
# bacteriophage λ = test: Growth of bacteriophage λ in transformed groEL strains; format: cell-based, bacteriophage λ (b2cI) in E. coli; settings: SV1 (groE^+)
# Excerpt: The E. Coli strains used in this study were: C41(DE3), a mutant of BL21(DE3) capable of expressing toxic genes (Miroux, B. & Walker, J. E. (1996) J. Mol. Biol. 260, 289-298); SV2 (B178groEL44), SV3 (B178groEL59) and SV6 (B178groEL673): isogenic strains carrying temperature-sensitive alleles of groEL; SV1(=B178) (Georgopoulos, C., Hendrix, R. W., Casjens, S. R. & Kaiser, A. D. (1973) J. Mol. Biol. 76, 45-60), A190 (ΔgroEL::kan^R) [pBAD-EL] (Ivic, A., Olden, D., Wallington, E. J. & Lund, P. A. (1997) Gene 194, 1-8), and TG1 (Gibson, T. J. (1984) Ph.D. thesis, University of Cambridge, U.K). Bacteriophage λb2cI (Zeilstra-Ryalls, J., Fayet, O., Baird, L. & Georgopoulos, C. (1993) J. Bacteriol. 175, 1134-1143) was used according to standard methods (Arber, W., Enquist, L., Hohn, B., Murray, N. E. & Murray, K. (1983) in Lambda II., ed. R. W. Hendrix, J. W. r., F. W. Stahl and R. A. Weisberg (Cold Spring Harbor Laboratory, Cold Spring Harbor, N.Y.), pp. 433-466); plaque formation was assayed at 30° C. T4D0, a derivative of bacteriophage T4 (Zeilstra-Ryalls, J., Fayet, O., Baird, L. & Georgopoulos, C. (1993) J. Bacteriol. 175, 1134-1143), was used according to standard methods (Karam, J. D. (1994) Molecular biology of bacteriophage T4. (American Society for Microbiology, Washington, D.C.)); plaque formation was assayed at 37° C.
# [3] = molecular target: T1, heat- and dithiothreitol-denatured mtMDH; test: In vitro refolding of denatured mtMDH; format: biochemical, pig; settings: FIG. 7b
# Protocol: In vitro Refolding Experiments.
# Refolding assays of pig heart mitochondrial malate dehydrogenase (mtMDH; Boehringer-Mannheim) and aggregation protection were carried out essentially as described (Peres Ben-Zvi, A. P., Chatellier, J., Fersht, A. R. & Goloubinoff, P. (1998) Proc. Natl. Acad. Sci. U.S.A. 95, 15275-15280). The concentrations of MC7 used were between 8-16 μM (reporter to protomer).
# GroES = GroES (Escherichia coli, UniProt P0A6F9); settings: ELISA, FIG. 5a
# Protocol: GroES Binding and Competition Assays by ELISA (Enzyme-Linked Immunosorbant Assay).
# Proteins were coated onto plastic microtitre plates (Maxisorb, Nunc) overnight at 4° C. at a concentration of 10 μg/mL in carbonate buffer (50 mM NaHCO3, pH 9.6). Plates were blocked for 1 hour at 25° C. with 2% Marvel in PBS (phosphate buffered saline: 25 mM NaH2PO4, 125 mM NaCl, pH 7.0). GroES, at 10 μg/mL in 100 μL of 10 mM Tris-HCl, 200 mM KCl, pH 7.4, were bound at 25° C. for 1 hour. Bound GroES were detected with rabbit anti-GroES antibodies (Sigma) followed by anti-rabbit immunoglobulins horseradish peroxidase conjugated antibodies (Sigma).
# Sequence of GroES (P0A6F9 whole entry): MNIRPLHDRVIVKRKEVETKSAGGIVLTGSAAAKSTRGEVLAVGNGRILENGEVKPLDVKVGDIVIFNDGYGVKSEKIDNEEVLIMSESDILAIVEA
molecule,measurement,setting,value
HDJ-2/HSDJ: a human HSP40 homologue,proportion of cells with inclusions / inclusion formation,[1],did not modify inclusion formation
same,inclusion formation in COS-7 cells,COS-7 cells,increased inclusion formation
CC(=O)N[C@@H](CSC(=O)[C@]1([C@@H](O)C(C)C)NC(=O)[C@H](C)[C@@H]1O)C(=O)O [lactacystin],proportion of cells with inclusions of mutant huntingtin exon 1,[2],increased the proportion of cells with inclusions
B1,Effect of over-expression on λ growth / plaque counts,bacteriophage λ,no effect on plaque counts
same,enhancing the refolding rate of mtMDH,[3],ineffective in enhancing the refolding rate
same,Binding to GroES,GroES,did not detectably bind
